How the values were obtained:
[1] = biological target: Transient receptor potential cation channel subfamily M member 6 (Homo sapiens) (UniProt Q9BX84); conditions: Compound concentration 1000.0 nM
[2] = biological target: High affinity nerve growth factor receptor (Homo sapiens) (UniProt P04629); conditions: Compound concentration 1000.0 nM
[3] = biological target: Cyclin-dependent kinase 8 (Homo sapiens) (UniProt P49336); conditions: Compound concentration 1000.0 nM
[4] = biological target: Casein kinase I isoform alpha-like (Homo sapiens) (UniProt Q8N752); conditions: Compound concentration 1000.0 nM
[5] = system: Fibroblast growth factor receptor 3 (Homo sapiens), P22607 [G697C]; conditions: Compound concentration 1000.0 nM
[6] = biological target: 5-hydroxytryptamine receptor 2A (Homo sapiens) (UniProt P28223); conditions: Compound concentration 10.0 uM
5-hydroxytryptamine receptor 2A (Homo sapiens), sequence (P28223 whole entry): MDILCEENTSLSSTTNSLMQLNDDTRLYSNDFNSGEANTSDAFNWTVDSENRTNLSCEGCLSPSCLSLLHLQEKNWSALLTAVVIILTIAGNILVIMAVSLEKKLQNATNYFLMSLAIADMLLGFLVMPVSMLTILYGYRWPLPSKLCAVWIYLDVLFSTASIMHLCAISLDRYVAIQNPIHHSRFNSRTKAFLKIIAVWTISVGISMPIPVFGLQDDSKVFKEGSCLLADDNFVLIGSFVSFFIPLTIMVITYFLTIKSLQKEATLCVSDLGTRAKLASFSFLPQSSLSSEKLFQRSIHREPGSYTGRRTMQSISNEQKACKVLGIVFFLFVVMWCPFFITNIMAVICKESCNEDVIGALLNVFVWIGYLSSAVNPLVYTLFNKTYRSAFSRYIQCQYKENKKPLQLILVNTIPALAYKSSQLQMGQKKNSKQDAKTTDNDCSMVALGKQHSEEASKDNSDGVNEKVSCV

[7] = biological target: RAC-alpha serine/threonine-protein kinase (Homo sapiens) (UniProt P31749); conditions: Compound concentration 1000.0 nM
[8] = biological target: Tyrosine-protein kinase Fgr (Homo sapiens) (UniProt P09769); conditions: Compound concentration 1000.0 nM
[9] = biological target: Serine/threonine-protein kinase TNNI3K (Homo sapiens) (UniProt Q59H18); conditions: Compound concentration 1000.0 nM
[10] = biological target: Alpha-1A adrenergic receptor (Homo sapiens) (UniProt P35348); conditions: Compound concentration 10.0 uM
[11] = biological target: Fibroblast growth factor receptor 1 (Homo sapiens) (UniProt P11362); conditions: Compound concentration 1000.0 nM
Fibroblast growth factor receptor 1 (Homo sapiens), sequence (P11362 22-822 limits assumed): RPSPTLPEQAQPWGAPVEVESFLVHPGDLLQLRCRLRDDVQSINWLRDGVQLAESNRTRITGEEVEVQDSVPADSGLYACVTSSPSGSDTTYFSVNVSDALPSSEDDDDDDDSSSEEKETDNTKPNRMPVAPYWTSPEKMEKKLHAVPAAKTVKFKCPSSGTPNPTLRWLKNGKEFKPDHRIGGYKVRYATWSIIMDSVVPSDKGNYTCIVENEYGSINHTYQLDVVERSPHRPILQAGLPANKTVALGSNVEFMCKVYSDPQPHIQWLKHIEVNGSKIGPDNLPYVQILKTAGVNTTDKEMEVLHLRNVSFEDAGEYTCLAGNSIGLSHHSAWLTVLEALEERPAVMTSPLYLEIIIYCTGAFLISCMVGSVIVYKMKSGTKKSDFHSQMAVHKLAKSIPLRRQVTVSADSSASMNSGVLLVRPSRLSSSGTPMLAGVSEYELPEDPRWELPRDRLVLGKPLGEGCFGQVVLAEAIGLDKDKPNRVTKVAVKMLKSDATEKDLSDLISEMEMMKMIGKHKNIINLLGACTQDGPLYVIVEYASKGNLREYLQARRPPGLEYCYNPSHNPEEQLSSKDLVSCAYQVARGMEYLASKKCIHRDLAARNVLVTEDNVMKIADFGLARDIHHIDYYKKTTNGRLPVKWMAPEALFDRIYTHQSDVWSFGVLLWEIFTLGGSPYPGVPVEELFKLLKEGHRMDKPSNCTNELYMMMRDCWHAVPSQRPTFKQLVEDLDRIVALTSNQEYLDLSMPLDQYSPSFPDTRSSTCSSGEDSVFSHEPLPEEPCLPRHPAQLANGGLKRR

[12] = biological target: Ribosomal protein S6 kinase alpha-6 (Homo sapiens) (UniProt Q9UK32); conditions: Compound concentration 1000.0 nM
[13] = biological target: Serine/threonine-protein kinase PAK 1 (Homo sapiens) (UniProt Q13153); conditions: Compound concentration 1000.0 nM
[14] = biological target: Tyrosine-protein kinase SYK (Homo sapiens) (UniProt P43405); conditions: Compound concentration 1000.0 nM
[15] = biological target: Cyclin-dependent kinase 18 (Homo sapiens) (UniProt Q07002); conditions: Compound concentration 1000.0 nM
[16] = biological target: Testis-specific serine/threonine-protein kinase 3 (Homo sapiens) (UniProt Q96PN8); conditions: Compound concentration 1000.0 nM
[17] = biological target: Protein-tyrosine kinase 2-beta (Homo sapiens) (UniProt Q14289); conditions: Compound concentration 1000.0 nM
[18] = biological target: cAMP-dependent protein kinase catalytic subunit PRKX (Homo sapiens) (UniProt P51817); conditions: Compound concentration 1000.0 nM
cAMP-dependent protein kinase catalytic subunit PRKX (Homo sapiens), sequence (P51817 whole entry): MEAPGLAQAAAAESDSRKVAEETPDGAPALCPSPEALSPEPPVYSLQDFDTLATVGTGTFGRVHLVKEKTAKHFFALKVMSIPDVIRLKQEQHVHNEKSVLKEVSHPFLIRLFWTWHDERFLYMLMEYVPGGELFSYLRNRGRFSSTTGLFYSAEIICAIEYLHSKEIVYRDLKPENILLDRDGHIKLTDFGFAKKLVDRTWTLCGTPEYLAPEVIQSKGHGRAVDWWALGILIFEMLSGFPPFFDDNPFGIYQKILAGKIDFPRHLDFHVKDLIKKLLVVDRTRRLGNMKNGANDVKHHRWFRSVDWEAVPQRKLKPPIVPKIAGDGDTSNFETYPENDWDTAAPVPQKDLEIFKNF

[19] = biological target: Aurora kinase C (Homo sapiens) (UniProt Q9UQB9); conditions: Compound concentration 1000.0 nM
[20] = system: Mast/stem cell growth factor receptor Kit (Homo sapiens), P10721 [D816V]; conditions: Compound concentration 1000.0 nM
[21] = biological target: Mitogen-activated protein kinase 13 (Homo sapiens) (UniProt O15264); conditions: Compound concentration 1000.0 nM
[22] = biological target: Cyclin-dependent kinase 5 (Homo sapiens) (UniProt Q00535); conditions: Compound concentration 1000.0 nM
Cyclin-dependent kinase 5 (Homo sapiens), sequence (Q00535 whole entry, looked up): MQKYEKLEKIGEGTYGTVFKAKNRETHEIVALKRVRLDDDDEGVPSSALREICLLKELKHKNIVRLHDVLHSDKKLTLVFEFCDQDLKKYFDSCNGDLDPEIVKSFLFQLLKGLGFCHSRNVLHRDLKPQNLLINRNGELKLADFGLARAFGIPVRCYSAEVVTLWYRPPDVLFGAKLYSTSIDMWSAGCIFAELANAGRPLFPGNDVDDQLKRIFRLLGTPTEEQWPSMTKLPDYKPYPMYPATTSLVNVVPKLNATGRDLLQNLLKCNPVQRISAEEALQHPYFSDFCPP

[23] = biological target: Serine/threonine-protein kinase 36 (Homo sapiens) (UniProt Q9NRP7); conditions: Compound concentration 1000.0 nM
[24] = system: Tyrosine-protein kinase ABL1 (Homo sapiens), P00519 [Q252H]; conditions: Compound concentration 1000.0 nM
[25] = biological target: Calcium/calmodulin-dependent protein kinase type IV (Homo sapiens) (UniProt Q16566); conditions: Compound concentration 1000.0 nM
Calcium/calmodulin-dependent protein kinase type IV (Homo sapiens), sequence (Q16566 whole entry): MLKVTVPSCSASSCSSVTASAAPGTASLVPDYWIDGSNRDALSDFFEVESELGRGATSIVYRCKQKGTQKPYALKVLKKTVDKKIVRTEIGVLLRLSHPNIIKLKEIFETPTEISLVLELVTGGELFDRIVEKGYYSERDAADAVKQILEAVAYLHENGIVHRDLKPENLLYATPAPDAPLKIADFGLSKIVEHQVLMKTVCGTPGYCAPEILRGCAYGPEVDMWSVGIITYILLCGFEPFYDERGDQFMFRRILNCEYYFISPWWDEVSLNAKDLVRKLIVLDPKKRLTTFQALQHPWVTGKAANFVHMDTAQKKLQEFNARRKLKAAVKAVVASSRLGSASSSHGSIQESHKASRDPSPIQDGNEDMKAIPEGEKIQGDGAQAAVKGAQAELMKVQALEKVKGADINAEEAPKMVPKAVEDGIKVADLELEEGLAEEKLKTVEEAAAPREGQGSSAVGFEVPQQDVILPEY

[26] = biological target: Phosphatidylinositol 4-phosphate 5-kinase type-1 gamma (Homo sapiens) (UniProt O60331); conditions: Compound concentration 1000.0 nM
Phosphatidylinositol 4-phosphate 5-kinase type-1 gamma (Homo sapiens), sequence (O60331 whole entry): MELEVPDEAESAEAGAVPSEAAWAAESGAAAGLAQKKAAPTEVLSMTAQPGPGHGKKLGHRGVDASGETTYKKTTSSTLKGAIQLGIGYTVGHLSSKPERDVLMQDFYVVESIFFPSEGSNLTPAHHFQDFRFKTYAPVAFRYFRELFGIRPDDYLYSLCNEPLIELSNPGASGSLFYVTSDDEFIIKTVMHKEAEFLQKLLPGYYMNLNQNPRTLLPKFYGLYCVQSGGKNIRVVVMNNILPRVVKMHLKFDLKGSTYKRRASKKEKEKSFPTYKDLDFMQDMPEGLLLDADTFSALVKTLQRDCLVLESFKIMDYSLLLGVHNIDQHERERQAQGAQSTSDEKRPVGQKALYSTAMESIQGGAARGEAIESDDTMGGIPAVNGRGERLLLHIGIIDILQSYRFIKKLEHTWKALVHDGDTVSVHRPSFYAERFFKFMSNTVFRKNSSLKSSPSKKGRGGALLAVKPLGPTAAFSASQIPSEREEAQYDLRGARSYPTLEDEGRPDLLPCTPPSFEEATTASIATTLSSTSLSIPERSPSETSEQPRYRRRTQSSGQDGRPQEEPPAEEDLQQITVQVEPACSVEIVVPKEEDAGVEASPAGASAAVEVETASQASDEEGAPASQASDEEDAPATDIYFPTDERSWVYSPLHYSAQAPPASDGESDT

[27] = biological target: Activin receptor type-2B (Homo sapiens) (UniProt Q13705); conditions: Compound concentration 1000.0 nM
[28] = system: Phosphatidylinositol 4,5-bisphosphate 3-kinase catalytic subunit alpha isoform (Homo sapiens), P42336 [E545K]; conditions: Compound concentration 1000.0 nM
[29] = biological target: Serine/threonine-protein kinase 3 (Homo sapiens) (UniProt Q13188); conditions: Compound concentration 1000.0 nM
[30] = biological target: Serine/threonine-protein kinase PAK 2 (Homo sapiens) (UniProt Q13177); conditions: Compound concentration 1000.0 nM
[31] = biological target: Sodium-dependent serotonin transporter (Homo sapiens) (UniProt P31645); conditions: Compound concentration 10.0 uM
[32] = biological target: Mu-type opioid receptor (Homo sapiens) (UniProt P35372); conditions: Compound concentration 10.0 uM
[33] = biological target: Mitogen-activated protein kinase kinase kinase 3 (Homo sapiens) (UniProt Q99759); conditions: Compound concentration 1000.0 nM
[34] = biological target: Cyclin-dependent kinase-like 2 (Homo sapiens) (UniProt Q92772); conditions: Compound concentration 1000.0 nM
[35] = biological target: Serine/threonine-protein kinase MARK2 (Homo sapiens) (UniProt Q7KZI7); conditions: Compound concentration 1000.0 nM
[36] = system: Receptor-type tyrosine-protein kinase FLT3 (Homo sapiens), P36888 [D835H]; conditions: Compound concentration 1000.0 nM
[37] = biological target: Serine/threonine-protein kinase Nek9 (Homo sapiens) (UniProt Q8TD19); conditions: Compound concentration 1000.0 nM
[38] = biological target: Activin receptor type-1-like (Homo sapiens) (UniProt P37023); conditions: Compound concentration 1000.0 nM
[39] = biological target: MAP/microtubule affinity-regulating kinase 4 (Homo sapiens) (UniProt Q96L34); conditions: Compound concentration 1000.0 nM
[40] = biological target: Citron Rho-interacting kinase (Homo sapiens) (UniProt O14578); conditions: Compound concentration 1000.0 nM
[41] = biological target: Dual specificity testis-specific protein kinase 1 (Homo sapiens) (UniProt Q15569); conditions: Compound concentration 1000.0 nM
Dual specificity testis-specific protein kinase 1 (Homo sapiens), sequence (Q15569 whole entry, looked up): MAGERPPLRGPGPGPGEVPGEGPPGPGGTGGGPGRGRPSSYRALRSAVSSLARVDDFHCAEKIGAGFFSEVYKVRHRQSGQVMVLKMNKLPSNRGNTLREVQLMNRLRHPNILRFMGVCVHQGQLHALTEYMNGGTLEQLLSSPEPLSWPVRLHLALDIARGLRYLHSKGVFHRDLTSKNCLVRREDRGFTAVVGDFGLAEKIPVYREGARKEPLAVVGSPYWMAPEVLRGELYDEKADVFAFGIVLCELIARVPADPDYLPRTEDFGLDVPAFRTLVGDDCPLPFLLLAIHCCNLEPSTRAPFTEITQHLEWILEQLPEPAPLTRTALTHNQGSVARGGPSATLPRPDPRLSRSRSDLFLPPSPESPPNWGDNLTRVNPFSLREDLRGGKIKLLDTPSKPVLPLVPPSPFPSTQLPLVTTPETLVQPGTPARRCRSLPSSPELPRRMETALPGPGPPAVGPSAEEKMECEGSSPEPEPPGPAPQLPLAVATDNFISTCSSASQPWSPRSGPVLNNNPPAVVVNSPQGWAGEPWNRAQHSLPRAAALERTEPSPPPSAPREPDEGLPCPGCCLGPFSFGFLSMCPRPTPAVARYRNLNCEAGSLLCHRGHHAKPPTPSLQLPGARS

[42] = biological target: NUAK family SNF1-like kinase 1 (Homo sapiens) (UniProt O60285); conditions: Compound concentration 1000.0 nM
NUAK family SNF1-like kinase 1 (Homo sapiens), sequence (O60285 whole entry): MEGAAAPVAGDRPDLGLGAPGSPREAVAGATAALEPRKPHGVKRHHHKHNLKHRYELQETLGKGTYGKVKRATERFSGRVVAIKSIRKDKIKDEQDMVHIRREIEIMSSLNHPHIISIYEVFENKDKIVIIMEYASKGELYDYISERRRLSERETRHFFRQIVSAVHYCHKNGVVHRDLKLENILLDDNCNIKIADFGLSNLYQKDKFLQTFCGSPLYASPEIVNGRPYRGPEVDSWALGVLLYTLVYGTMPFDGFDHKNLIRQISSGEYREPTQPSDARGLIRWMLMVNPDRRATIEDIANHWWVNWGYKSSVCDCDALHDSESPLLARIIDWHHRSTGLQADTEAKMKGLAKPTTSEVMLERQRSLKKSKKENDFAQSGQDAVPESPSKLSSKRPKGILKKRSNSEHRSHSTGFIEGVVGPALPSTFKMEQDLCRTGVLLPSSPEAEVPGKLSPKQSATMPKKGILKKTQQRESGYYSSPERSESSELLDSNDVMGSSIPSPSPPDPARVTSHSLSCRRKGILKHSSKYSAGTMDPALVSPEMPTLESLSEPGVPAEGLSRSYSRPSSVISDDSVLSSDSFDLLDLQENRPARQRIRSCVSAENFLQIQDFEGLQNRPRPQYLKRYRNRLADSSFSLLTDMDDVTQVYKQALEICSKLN

[43] = system: Epidermal growth factor receptor (Homo sapiens), P00533 [UNDEFINED MUTATION]; conditions: Compound concentration 1000.0 nM
[44] = biological target: 5'-AMP-activated protein kinase catalytic subunit alpha-2 (Homo sapiens) (UniProt P54646); conditions: Compound concentration 1000.0 nM
[45] = biological target: Wee1-like protein kinase 2 (Homo sapiens) (UniProt P0C1S8); conditions: Compound concentration 1000.0 nM
Wee1-like protein kinase 2 (Homo sapiens), sequence (P0C1S8 whole entry, looked up): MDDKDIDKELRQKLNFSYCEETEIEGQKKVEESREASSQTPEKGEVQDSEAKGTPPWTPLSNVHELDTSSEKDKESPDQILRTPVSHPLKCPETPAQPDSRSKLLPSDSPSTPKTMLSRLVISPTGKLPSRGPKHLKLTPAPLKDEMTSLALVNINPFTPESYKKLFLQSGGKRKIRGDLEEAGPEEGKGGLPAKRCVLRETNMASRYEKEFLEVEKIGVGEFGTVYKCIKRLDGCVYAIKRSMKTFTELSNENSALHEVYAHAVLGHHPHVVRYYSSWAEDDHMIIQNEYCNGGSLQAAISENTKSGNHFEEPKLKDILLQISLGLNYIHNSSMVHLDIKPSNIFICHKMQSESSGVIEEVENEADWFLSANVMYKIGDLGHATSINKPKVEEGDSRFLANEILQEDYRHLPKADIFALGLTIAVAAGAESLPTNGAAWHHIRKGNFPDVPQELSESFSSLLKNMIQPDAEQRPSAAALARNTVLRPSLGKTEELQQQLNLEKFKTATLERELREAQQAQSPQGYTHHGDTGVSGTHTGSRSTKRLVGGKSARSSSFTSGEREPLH

CCC(=N\O)/C(C)=C/c1ccc(F)c(C)c1 [A-226]
inactive: residual activity [1] 100% | residual activity [2] 100% | residual activity [3] 73% | residual activity [4] 83% | residual activity [5] 87% | inhibition [6] 40.8% | residual activity [7] 98% | residual activity [8] 86% | residual activity [9] 53% | inhibition [10] -8.35% | residual activity [11] 57% | residual activity [12] 100% | residual activity [13] 70% | residual activity [14] 76% | residual activity [15] 87% | residual activity [16] 100% | residual activity [17] 98% | residual activity [18] 94% | residual activity [19] 100% | residual activity [20] 94% | residual activity [21] 100% | residual activity [22] 86% | residual activity [23] 100% | residual activity [24] 100% | residual activity [25] 87% | residual activity [26] 78% | residual activity [27] 100% | residual activity [28] 100% | residual activity [29] 100% | residual activity [30] 79% | inhibition [31] 8.28% | inhibition [32] -1.52% | residual activity [33] 100% | residual activity [34] 81% | residual activity [35] 100% | residual activity [36] 89% | residual activity [37] 100% | residual activity [38] 98% | residual activity [39] 88% | residual activity [40] 70% | residual activity [41] 73% | residual activity [42] 96% | residual activity [43] 65% | residual activity [44] 100% | residual activity [45] 100%

CCC(=N\O)/C(C)=C/c1ccc(F)cc1 [A-079]
inactive: residual activity [1] 64% | residual activity [2] 83% | residual activity [3] 100% | residual activity [4] 78% | residual activity [5] 84% | inhibition [6] 21.7% | residual activity [7] 82% | residual activity [8] 67% | residual activity [9] 70% | inhibition [10] -9.69% | residual activity [11] 100% | residual activity [12] 81% | residual activity [13] 88% | residual activity [14] 100% | residual activity [15] 89% | residual activity [16] 99% | residual activity [17] 99% | residual activity [18] 96% | residual activity [19] 80% | residual activity [20] 87% | residual activity [21] 92% | residual activity [22] 68% | residual activity [23] 84% | residual activity [24] 90% | residual activity [25] 69% | residual activity [26] 100% | residual activity [27] 91% | residual activity [28] 100% | residual activity [29] 100% | residual activity [30] 82% | inhibition [31] 13% | inhibition [32] -5.9% | residual activity [33] 86% | residual activity [34] 92% | residual activity [35] 100% | residual activity [36] 100% | residual activity [37] 79% | residual activity [38] 76% | residual activity [39] 100% | residual activity [40] 70% | residual activity [41] 82% | residual activity [42] 100% | residual activity [43] 67% | residual activity [44] 88% | residual activity [45] 83%

— ChEMBL document CHEMBL4507256 (2021)
